Experiments:
Test in all cases: relative viability (nuclei count vs DMSO), 5 days (fraction); higher = more cells survive
[1] = tested on: A-427
Summary of the method: (§1)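 Relative viability divides the nuclei count in treated wells by that in vehicle wells. Lung cancer cell lines were seeded in 1536-well plates, dosed by pin tool the next day, and fixed and stained after 5 days in one step with final 0.05% Triton X-100, 1% formaldehyde and 1 ug/ml Hoechst. Dosing was a single drug or a fixed anchor-drug dose plus five library-drug doses (not always all listed) in √10 steps, and values are medians of duplicate plates imaged at 4×.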

[2] = tested on: COR-L 105
Summary of the method: as §1

[3] = tested on: ChaGo-K-1
Summary of the method: as §1

[4] = tested on: EKVX
Summary of the method: as §1

[5] = tested on: EMC-BAC-2
Summary of the method: as §1

[6] = tested on: H3255
Summary of the method: as §1

[7] = tested on: HCC-366
Summary of the method: as §1

[8] = tested on: LK-2
Summary of the method: as §1

[9] = tested on: LOU-NH91
Summary of the method: as §1

[10] = tested on: NCI-H1666
Summary of the method: as §1

[11] = tested on: NCI-H1734
Summary of the method: as §1

[12] = tested on: NCI-H1755
Summary of the method: as §1

[13] = tested on: NCI-H1975
Summary of the method: as §1

[14] = tested on: NCI-H2170
Summary of the method: as §1

[15] = tested on: NCI-H23
Summary of the method: as §1

[16] = tested on: NCI-H441
Summary of the method: as §1

[17] = tested on: NCI-H520
Summary of the method: as §1

[18] = tested on: NCI-H596
Summary of the method: as §1

[19] = tested on: PC-3 [JPC-3]
Summary of the method: as §1

[20] = tested on: SK-MES-1
Summary of the method: as §1

## COc1cc2nccc(Oc3ccc(NC(=O)Nc4cc(C)on4)c(Cl)c3)c2cc1OC [Tivozanib] + CC1(C)CCC(c2ccc(Cl)cc2)=C(CN2CCN(c3ccc(C(=O)NS(=O)(=O)c4ccc(N[C@H](CCN5CCOCC5)CSc5ccccc5)c(S(=O)(=O)C(F)(F)F)c4)cc3)CC2)C1 [Navitoclax] (partner 0.5 µM)
[1]; first compound 0.005 µM
  relative viability: 0.924
[1]; first compound 0.01581 µM
  relative viability: 0.989
[1]; first compound 0.05 µM
  relative viability: 0.988
[1]; first compound 0.1581 µM
  relative viability: 0.737
[1]; first compound 0.5 µM
  relative viability: 1.03
[2]; first compound 0.01581 µM
  relative viability: 0.835
[2]; first compound 0.05 µM
  relative viability: 0.829
[2]; first compound 0.1581 µM
  relative viability: 1.17
[2]; first compound 0.5 µM
  relative viability: 0.743
[3]; first compound 0.005 µM
  relative viability: 0.846
[3]; first compound 0.01581 µM
  relative viability: 1.03
[3]; first compound 0.05 µM
  relative viability: 0.802
[3]; first compound 0.1581 µM
  relative viability: 0.645
[3]; first compound 0.5 µM
  relative viability: 0.799
[4]; first compound 0.005 µM
  relative viability: 0.869
[4]; first compound 0.01581 µM
  relative viability: 0.772
[4]; first compound 0.05 µM
  relative viability: 0.982
[4]; first compound 0.1581 µM
  relative viability: 0.793
[4]; first compound 0.5 µM
  relative viability: 0.922
[5]; first compound 0.005 µM
  relative viability: 1.27
[5]; first compound 0.01581 µM
  relative viability: 1.11
[5]; first compound 0.05 µM
  relative viability: 1.21
[5]; first compound 0.1581 µM
  relative viability: 1.14
[5]; first compound 0.5 µM
  relative viability: 1.24
[6]; first compound 0.005 µM
  relative viability: 0.446
[6]; first compound 0.01581 µM
  relative viability: 0.482
[6]; first compound 0.05 µM
  relative viability: 0.495
[6]; first compound 0.1581 µM
  relative viability: 0.328
[6]; first compound 0.5 µM
  relative viability: 0.516
[7]; first compound 0.005 µM
  relative viability: 1.05
[7]; first compound 0.01581 µM
  relative viability: 1.05
[7]; first compound 0.05 µM
  relative viability: 0.947
[7]; first compound 0.1581 µM
  relative viability: 1.01
[7]; first compound 0.5 µM
  relative viability: 1.08
[8]; first compound 0.005 µM
  relative viability: 0.819
[8]; first compound 0.01581 µM
  relative viability: 0.789
[8]; first compound 0.05 µM
  relative viability: 0.952
[8]; first compound 0.1581 µM
  relative viability: 0.802
[8]; first compound 0.5 µM
  relative viability: 0.644
[9]; first compound 0.005 µM
  relative viability: 0.641
[9]; first compound 0.01581 µM
  relative viability: 0.715
[9]; first compound 0.05 µM
  relative viability: 0.706
[9]; first compound 0.1581 µM
  relative viability: 0.675
[9]; first compound 0.5 µM
  relative viability: 0.705
[10]; first compound 0.005 µM
  relative viability: 0.993
[10]; first compound 0.01581 µM
  relative viability: 0.96
[10]; first compound 0.05 µM
  relative viability: 1.02
[10]; first compound 0.1581 µM
  relative viability: 0.891
[10]; first compound 0.5 µM
  relative viability: 0.867
[11]; first compound 0.005 µM
  relative viability: 0.865
[11]; first compound 0.01581 µM
  relative viability: 0.804
[11]; first compound 0.05 µM
  relative viability: 0.823
[11]; first compound 0.1581 µM
  relative viability: 0.734
[11]; first compound 0.5 µM
  relative viability: 0.82
[12]; first compound 0.005 µM
  relative viability: 0.953
[12]; first compound 0.01581 µM
  relative viability: 0.949
[12]; first compound 0.05 µM
  relative viability: 1.01
[12]; first compound 0.1581 µM
  relative viability: 0.932
[12]; first compound 0.5 µM
  relative viability: 0.916
[13]; first compound 0.005 µM
  relative viability: 1.1
[13]; first compound 0.01581 µM
  relative viability: 1.19
[13]; first compound 0.05 µM
  relative viability: 1.09
[13]; first compound 0.1581 µM
  relative viability: 1.06
[13]; first compound 0.5 µM
  relative viability: 0.884
[14]; first compound 0.005 µM
  relative viability: 0.537
[14]; first compound 0.01581 µM
  relative viability: 0.568
[14]; first compound 0.05 µM
  relative viability: 0.677
[14]; first compound 0.5 µM
  relative viability: 0.584
[15]; first compound 0.005 µM
  relative viability: 0.753
[15]; first compound 0.01581 µM
  relative viability: 0.718
[15]; first compound 0.05 µM
  relative viability: 0.92
[15]; first compound 0.1581 µM
  relative viability: 0.652
[15]; first compound 0.5 µM
  relative viability: 0.938
[16]; first compound 0.005 µM
  relative viability: 0.473
[16]; first compound 0.01581 µM
  relative viability: 0.424
[16]; first compound 0.05 µM
  relative viability: 0.747
[16]; first compound 0.1581 µM
  relative viability: 0.566
[16]; first compound 0.5 µM
  relative viability: 0.545
[17]; first compound 0.005 µM
  relative viability: 1.09
[17]; first compound 0.01581 µM
  relative viability: 0.962
[17]; first compound 0.05 µM
  relative viability: 0.969
[17]; first compound 0.1581 µM
  relative viability: 0.782
[17]; first compound 0.5 µM
  relative viability: 0.887
[18]; first compound 0.005 µM
  relative viability: 0.94
[18]; first compound 0.01581 µM
  relative viability: 1.07
[18]; first compound 0.05 µM
  relative viability: 0.936
[18]; first compound 0.1581 µM
  relative viability: 0.911
[18]; first compound 0.5 µM
  relative viability: 0.922
[19]; first compound 0.005 µM
  relative viability: 0.735
[19]; first compound 0.01581 µM
  relative viability: 0.87
[19]; first compound 0.05 µM
  relative viability: 0.772
[19]; first compound 0.1581 µM
  relative viability: 0.788
[19]; first compound 0.5 µM
  relative viability: 0.809
[20]; first compound 0.005 µM
  relative viability: 1.25
[20]; first compound 0.01581 µM
  relative viability: 1.16
[20]; first compound 0.05 µM
  relative viability: 1.4
[20]; first compound 0.1581 µM
  relative viability: 1.17
[20]; first compound 0.5 µM
  relative viability: 1.18
